Measurements taken from patent US8889676B2, “3-ureidoisoquinolin-8-yl derivatives” (Actelion Pharmaceuticals Ltd., priority 2011, dated 2014).
Values after ≈ are worked out from the molar mass of the structure shown.

Tested on: S. pneumoniae ATCC 49619
Assay: Minimal inhibitory concentration (MIC) by broth microdilution (CLSI M7-A7)
Type: cell-based, Streptococcus pneumoniae
Conditions: Streptococcus pneumoniae, ATCC49619; cation-adjusted Mueller Hinton Broth supplemented with 3% (v/v) lysed horse blood; microdilution method
Protocol: Minimal inhibitory concentrations (MICs; mg/l) were determined in cation-adjusted MuellerHinton Broth (supplemented with 3% (v/v) lysed horse blood for testing Streptococcus pneumoniae) by a microdilution method following the description given in “Methods for Dilution Antimicrobial Susceptibility Tests for Bacteria that Grow Aerobically”, Approved standard, 7th ed., a Clinical and Laboratory Standards Institute (CLSI) Document M7-A7, Wayne, Pa., USA, 2006.

SMILES | MIC
CCNC(=O)Nc1cc2c(-c3ccncc3)ccc(CNC(=O)c3cnc[nH]3)c2cn1 [Example 71, 3H-imidazole-4-carboxylic acid [3-(3-ethyl-ureido)-5-pyridin-4-yl-isoquinolin-8-ylmethyl]-amide] | 2 µg/mL (≈ 4.81 µM)
CCNC(=O)Nc1cc2c(-c3ccncc3)ccc(CNC(=O)c3cc[nH]n3)c2cn1 [Example 72, 1H-pyrazole-3-carboxylic acid [3-(3-ethyl-ureido)-5-pyridin-4-yl-isoquinolin-8-ylmethyl]-amide] | 0.5 µg/mL (≈ 1.2 µM)
CCNC(=O)Nc1cc2c(-c3ccncc3)ccc(CNC(=O)c3cn[nH]c3)c2cn1 [Example 73, 1H-pyrazole-4-carboxylic acid [3-(3-ethyl-ureido)-5-pyridin-4-yl-isoquinolin-8-ylmethyl]-amide] | 2 µg/mL (≈ 4.81 µM)
CCNC(=O)Nc1cc2c(-c3ccncc3)ccc(CNC(=O)c3ncc[nH]3)c2cn1 [Example 74, 1H-imidazole-2-carboxylic acid [3-(3-ethyl-ureido)-5-pyridin-4-yl-isoquinolin-8-ylmethyl]-amide] | 0.25 µg/mL (≈ 0.602 µM)
C#CC(=O)NCc1ccc(-c2ccncc2)c2cc(NC(=O)NCC)ncc12 [Example 75, propynoic acid [3-(3-ethyl-ureido)-5-pyridin-4-yl-isoquinolin-8-ylmethyl]-amide] | 0.25 µg/mL (≈ 0.669 µM)
CCNC(=O)Nc1cc2c(-c3ccncc3)ccc(CNC(=O)OC(C)C)c2cn1 [Example 77, [3-(3-ethyl-ureido)-5-pyridin-4-yl-isoquinolin-8-ylmethyl]-carbamic acid isopropyl ester] | 0.5 µg/mL (≈ 1.23 µM)
CCNC(=O)Nc1cc2c(-c3ccncc3)ccc(CNC(=O)OC)c2cn1 [Example 79, [3-(3-ethyl-ureido)-5-pyridin-4-yl-isoquinolin-8-ylmethyl]-carbamic acid methyl ester] | 0.25 µg/mL (≈ 0.659 µM)
CCNC(=O)Nc1cc2c(-c3ccncc3)ccc(CNC(=O)OCCNC(=O)OC(C)(C)C)c2cn1 [Example 81, [3-(3-ethyl-ureido)-5-pyridin-4-yl-isoquinolin-8-ylmethyl]-carbamic acid 2-tert-butoxycarbonylamino-ethyl ester] | 0.5 µg/mL (≈ 0.983 µM)
CCNC(=O)Nc1cc2c(-c3ccncc3)ccc(CNC(=O)OCC3CC3)c2cn1.Cl [Example 84, [3-(3-ethyl-ureido)-5-pyridin-4-yl-isoquinolin-8-ylmethyl]-carbamic acid cyclopropylmethyl ester hydrochloride] | 0.5 µg/mL

The remaining lines, values ahead:

MIC | SMILES
0.25 µg/mL (≈ 0.593 µM) | CCNC(=O)Nc1cc2c(-c3ccncc3)ccc(CNC(=O)OC(C)(C)C)c2cn1 [Example 76, [3-(3-ethyl-ureido)-5-pyridin-4-yl-isoquinolin-8-ylmethyl]-carbamic acid tert-butyl ester]
4 µg/mL (≈ 9.16 µM) | CCNC(=O)Nc1cc2c(-c3ccncc3)ccc(CNC(=O)OCCN(C)C)c2cn1 [Example 78, [3-(3-ethyl-ureido)-5-pyridin-4-yl-isoquinolin-8-ylmethyl]-carbamic acid 2-dimethylamino-ethyl ester]
8 µg/mL (≈ 17.3 µM) | CCNC(=O)Nc1cc2c(-c3ccncc3)ccc(CNC(=O)OCCN3CCCC3)c2cn1 [Example 80, [3-(3-ethyl-ureido)-5-pyridin-4-yl-isoquinolin-8-ylmethyl]-carbamic acid 2-pyrrolidin-1-yl-ethyl ester]
2 µg/mL (≈ 3.83 µM) | CCNC(=O)Nc1cc2c(-c3ccncc3)ccc(CNC(=O)OCCN(C)C(=O)OC(C)(C)C)c2cn1 [Example 82, tert-butyl (2-((((3-(3-ethylureido)-5-(pyridin-4-yl)isoquinolin-8-yl)methyl)carbamoyl)oxy)ethyl)(methyl)carbamate]
1 µg/mL (≈ 1.73 µM) | CCNC(=O)Nc1cc2c(-c3ccncc3)ccc(CNC(=O)OCCN3CCN(C(=O)OC(C)(C)C)CC3)c2cn1 [Example 83, tert-butyl 4-(2-((((3-(3-ethylureido)-5-(pyridin-4-yl)isoquinolin-8-yl)methyl)carbamoyl)oxy)ethyl)piperazine-1-carboxylate]
